Data: ChEMBL document CHEMBL2380261, “Analogs design, synthesis and biological evaluation of peptidomimetics with potential anti-HCV activity” (Bioorg Med Chem, 2013)

Tests used:
[1] = Cytotoxicity against human Huh7.5 cells assessed as cell viability after 48 hrs by Alamar blue assay
Hepatitis C virus = assay: microbe, parasite or virus in culture; assay type: functional, organism-based, Hepacivirus hominis; settings: genotype 2a J6/JFH, Huh-7, 48 h
Description: Antiviral activity against Hepatitis C virus subtype 2a J6/JFH transfected in human Huh7.5 cells assessed as inhibition of viral replication after 48 hrs by luciferase reporter gene assay

[2] = Safety index, ratio of CC50 for human Huh7.5 cells to EC50 for Hepatitis C virus subtype 2a J6/JFH
[3] = Inhibition of HCV NS3 protease (1027 to 1206) after 30 mins in presence of Pep4AK; parameters: species or system Hepacivirus hominis

Structure (SMILES) | EC50 (Hepatitis C virus) | IC50 [3] | CC50 at 48 h [1] | selectivity ratio [2]
C[C@H](NC(=O)CCC(=O)/C=C/c1ccc2c(c1)OCO2)C(=O)O | 5440 nM |  | 12100 nM | 2.22
CCOS(=O)(=O)/C=C/[C@H](Cc1ccccc1)NC(=O)OC(C)(C)C | 1210 nM |  | 3500 nM | 2.88
CCOS(=O)(=O)/C=C/[C@H](Cc1ccccc1)NC(=O)CCC(=O)/C=C/c1ccccc1 | 296 nM |  | 1000 nM | 
CCOS(=O)(=O)/C=C/[C@H](Cc1ccccc1)NC(C)=O | 2110 nM |  | 7910 nM | 3.75
CCOS(=O)(=O)/C=C/[C@@H](NC(C)=O)[C@@H](C)O | 4360 nM |  | 27700 nM | 6.36
CC(C)C[C@H](NC(=O)[C@]1(Cc2ccsc2C(=O)O)Cc2ccccc2N1)C(=O)N[C@@H](CC(F)F)C(=O)C(=O)O |  | 700 nM |  | 
COC(=O)[C@H](C)NC(=O)CCC(=O)/C=C/c1ccc2c(c1)OCO2 | 347 nM |  | 1110 nM | 3.19
CC(C)(C)NC(=O)N[C@H](C(=O)N1C[C@H]2[C@@H]([C@H]1C(=O)NC(CC1CCC1)C(=O)C(N)=O)C2(C)C)C(C)(C)C (stereo partly drawn) [BOCEPREVIR] | 800 nM |  | > 100000 nM | 

Now from value to compound, other results behind:

EC50 (Hepatitis C virus) | IC50 [3] | Structure (SMILES) | CC50 at 48 h [1] | selectivity ratio [2]
22500 nM |  | CC(C)[C@H](NC(=O)CCC(=O)/C=C/c1ccccc1)C(=O)O | > 100000 nM | > 4.45
960 nM |  | COC(=O)[C@H](C)NC(=O)CCC(=O)/C=C/c1ccccc1 | 1320 nM | 1.37
381 nM |  | COC(=O)[C@@H](NC(=O)CCC(=O)/C=C/c1ccccc1)C(C)C | 1480 nM | 3.88
900 nM |  | COC(=O)[C@H](C)NC(=O)CCC(=O)/C=C/c1cccnc1 | 2110 nM | 2.34
1140 nM |  | COC(=O)[C@@H](NC(=O)CCC(=O)/C=C/c1cccnc1)C(C)C | 1570 nM | 1.38
682 nM |  | COC(=O)[C@@H](NC(=O)CCC(=O)/C=C/c1ccc2c(c1)OCO2)C(C)C | 1390 nM | 2.83
